According to ChEMBL document CHEMBL5346906, “Discovery of novel tranylcypromine-based derivatives as LSD1 inhibitors for gastric cancer treatment” (Eur J Med Chem, 2023):
pIC50: −log10 of the molar value. The source made the active and inactive calls. The rule behind the calls is not given here.

Tests used:
[1] = system: MGC-803; experiment: Induction of apoptosis in human MGC-803 cells assessed as necrotic cells at 8 micromol/L for 48 hrs by annexinV-FITC/PI staining based flow cytometric analysis (reference value: 0.22%); assay type: functional; conditions: dose 8 µmol/L, at 8 µM
[2] = system: MGC-803; experiment: Induction of mitochondrial membrane potential depolarization in human MGC-803 assessed as viable cells measured at 8 micromol/L for 20 mins by JC-1 staining based flow cytometric analysis (reference value: 0.40%); assay type: functional; conditions: MGC-803, 20 min, dose 8 µmol/L, read-out: Activity
[3] = system: MGC-803; experiment: Induction of cell differentiation in human MGC-803 cells assessed as increase in CD86 level at 24 micromol/L incubated for 48 hrs by flow cytometric analysis (reference value: 60%); assay type: functional; conditions: dose 24 µmol/L, at 24 µM
[4] = system: KYSE-450; experiment: Antiproliferative activity against human KYSE-450 cells incubated for 48 hrs measured by MTT assay; assay type: functional, cell-based; conditions: KYSE-450, 48 h
[5] = target: T1, Amine oxidase [flavin-containing] A (Homo sapiens, UniProt P21397); experiment: Inhibition of MAO-A (unknown origin) measured by MAO-GloTM method
T1 sequence (P21397 whole entry): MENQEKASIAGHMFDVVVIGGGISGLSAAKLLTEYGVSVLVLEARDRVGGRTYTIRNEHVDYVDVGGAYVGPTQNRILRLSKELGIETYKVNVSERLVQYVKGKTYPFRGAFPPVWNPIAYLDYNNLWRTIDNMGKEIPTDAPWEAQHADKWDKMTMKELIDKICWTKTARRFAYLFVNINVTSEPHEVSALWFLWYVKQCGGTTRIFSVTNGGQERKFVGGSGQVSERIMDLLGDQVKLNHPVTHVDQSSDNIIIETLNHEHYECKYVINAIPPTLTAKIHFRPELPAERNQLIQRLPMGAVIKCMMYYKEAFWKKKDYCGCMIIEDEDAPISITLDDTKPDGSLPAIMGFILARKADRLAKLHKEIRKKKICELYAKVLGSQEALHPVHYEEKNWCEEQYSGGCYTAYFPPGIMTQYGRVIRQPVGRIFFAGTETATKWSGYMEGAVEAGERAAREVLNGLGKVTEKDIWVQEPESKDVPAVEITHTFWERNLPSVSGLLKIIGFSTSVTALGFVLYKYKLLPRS

[6] = target: T2, Lysine-specific histone demethylase 1A (Homo sapiens, UniProt O60341); experiment: Inhibition of LSD1 in human MGC-803 cells assessed as increase in mono methylation of H3K4; assay type: cell-based; conditions: dose 0-24 µmol/L
[7] = system: MGC-803; experiment: Induction of apoptosis in human MGC-803 cells assessed as morphological change in cell nucleus incubated at 8 to 24 micromol/L for 48 hrs measured by DAPI staining analysis; assay type: functional, cell-based; conditions: dose 8-24 µmol/L
[8] = system: MGC-803; experiment: Induction of cell differentiation in human MGC-803 cells assessed as decrease in nucleoplasmic ratio of cells incubated for 6 days measured by Giemsa staining method; assay type: functional, cell-based; conditions: dose 2-4 µmol/L, time 6.0 day
[9] = system: MGC-803; experiment: Induction of apoptosis in human MGC-803 cells assessed as decrease in anti-apoptotic c-IAP1 expression at 8 to 24 micromol/L; assay type: functional, cell-based; conditions: dose 8-24 µmol/L
[10] = system: MGC-803; experiment: Induction of mitochondrial membrane potential depolarization in human MGC-803 assessed as late apoptotic cells measured at 8 micromol/L for 20 mins by JC-1 staining based flow cytometric analysis (reference value: 94.98%); assay type: functional; conditions: dose 8 µmol/L, at 8 µM
[11] = system: MGC-803; experiment: Induction of apoptosis in human MGC-803 cells assessed as late apoptotic cells at 8 micromol/L for 48 hrs by annexinV-FITC/PI staining based flow cytometric analysis (reference value: 1.32%); assay type: functional; conditions: dose 8 µmol/L, at 8 µM
[12] = system: MGC-803; experiment: Antiproliferative activity against human MGC-803 cells assessed as reduction in stemness of cells by measuring tumor ball diameter at 0 to 8 uM after 48 hrs measured after 10 days using 3D-spheroid assay; assay type: functional, cell-based; conditions: dose 0-8 µM
[13] = system: MGC-803; experiment: Induction of apoptosis in human MGC-803 cells assessed as viable cells at 8 micromol/L for 48 hrs by annexinV-FITC/PI staining based flow cytometric analysis (reference value: 95.54%); assay type: functional; conditions: MGC-803, 48 h, dose 8 µmol/L, read-out: Activity
[14] = system: MGC-803; experiment: Induction of apoptosis in human MGC-803 cells assessed as late apoptotic cells at 24 micromol/L for 48 hrs by annexinV-FITC/PI staining based flow cytometric analysis (reference value: 1.32%); assay type: functional; conditions: dose 24 µmol/L, at 24 µM
[15] = target: T2, Lysine-specific histone demethylase 1A; experiment: Binding affinity to LSD1 in human MGC-803 cells assessed as thermal stability measured at 100 uM preincubated for 30 mins and incubated at 42 to 60 degreeC for 3 mins followed by cooled for 180 secs cycle repeated 3 times by CETSA based Western blotting analysis; assay type: cell-based; conditions: time 48.0 min
[16] = system: MGC-803; experiment: Induction of mitochondrial membrane potential depolarization in human MGC-803 assessed as late apoptotic cells measured at 24 micromol/L for 20 mins by JC-1 staining based flow cytometric analysis (reference value: 94.98%); assay type: functional; conditions: dose 24 µmol/L, at 24 µM
[17] = system: MGC-803; experiment: Induction of cell differentiation in human MGC-803 cells assessed as increase in CD86 level at 8 micromol/L incubated for 48 hrs by flow cytometric analysis (reference value: 60%); assay type: functional; conditions: dose 8 µmol/L, at 8 µM
[18] = system: MGC-803; experiment: Induction of apoptosis in human MGC-803 cells assessed as morphological change in cell nucleus incubated at 8 to 24 micromol/L for 48 hrs measured by Giemsa staining based microscopic analysis; assay type: functional; conditions: dose 8-24 µmol/L
[19] = target: T2, Lysine-specific histone demethylase 1A; experiment: Inhibition of LSD1 in human MGC-803 cells assessed as increase in dimethylation of H3K4; assay type: cell-based; conditions: dose 0-24 µmol/L
[20] = system: MGC-803; experiment: Induction of cell differentiation in human MGC-803 cells assessed as increase in CD86 level at 16 micromol/L incubated for 48 hrs by flow cytometric analysis (reference value: 60%); assay type: functional; conditions: dose 16 µmol/L, at 16 µM
[21] = system: MGC-803; experiment: Induction of mitochondrial membrane potential depolarization in human MGC-803 assessed as early apoptotic cells measured at 8 micromol/L for 20 mins by JC-1 staining based flow cytometric analysis (reference value: 4.52%); assay type: functional; conditions: dose 8 µmol/L, at 8 µM
[22] = system: MGC-803; experiment: Induction of apoptosis in human MGC-803 cells assessed as decrease in capase9 expression at 8 to 24 micromol/L; assay type: functional, cell-based; conditions: dose 8-24 µmol/L
[23] = system: MGC-803; experiment: Induction of apoptosis in human MGC-803 cells assessed as late apoptotic cells at 16 micromol/L for 48 hrs by annexinV-FITC/PI staining based flow cytometric analysis (reference value: 1.32%); assay type: functional; conditions: dose 16 µmol/L, at 16 µM
[24] = system: MGC-803; experiment: Antiproliferative activity against human MGC-803 cells assessed as reduction in stemness of cells by measuring tumor ball diameter at 0 to 8 uM after 48 hrs using 3D-spheroid assay; assay type: functional, cell-based; conditions: dose 0-8 µM
[25] = system: MGC-803; experiment: Induction of apoptosis in human MGC-803 cells assessed as cell death incubated at 8 to 24 micromol/L for 48 hrs measured by Calcein-AM/PI staining analysis; assay type: functional, cell-based; conditions: dose 8-24 µmol/L
[26] = system: MGC-803; experiment: Induction of apoptosis in human MGC-803 cells assessed as early apoptotic cells at 8 micromol/L for 48 hrs by annexinV-FITC/PI staining based flow cytometric analysis (reference value: 2.92%); assay type: functional; conditions: dose 8 µmol/L, at 8 µM
[27] = system: MGC-803; experiment: Induction of apoptosis in human MGC-803 cells assessed as decrease in anti-apoptotic Bcl-2 expression at 8 to 24 micromol/L; assay type: functional, cell-based; conditions: dose 8-24 µmol/L
[28] = system: MGC-803; experiment: Induction of mitochondrial membrane potential depolarization in human MGC-803 assessed as necrotic cells measured at 16 micromol/L for 20 mins by JC-1 staining based flow cytometric analysis (reference value: 0.00%); assay type: functional; conditions: dose 16 µmol/L, at 16 µM

O=C(c1cccc(CN[C@@H]2C[C@H]2c2ccc(F)c(F)c2)c1)N1CCN(c2ccc(Cl)c(Cl)c2)CC1
Activity [1]: 0.32% | viability at 8 µM [2]: 0.52% | Activity [3]: 74.6% | pIC50 [4]: 4.64 | pIC50 [5]: 5.91 | inhibition [6]: Dose-Dependent Effect | Activity [7]: Active | Activity [8]: Dose-Dependent Effect | Activity [9]: Active | Activity [10]: 93.18% | Activity [11]: 2.76% | Activity [12]: Active | viability at 8 µM [13]: 91% | Activity [14]: 9.98% | Activity [15]: Active | Activity [16]: 69.38% | Activity [17]: 64.13% | Activity [18]: Active | inhibition [19]: Dose-Dependent Effect | Activity [20]: 64.32% | Activity [21]: 6.3% | Activity [22]: Active | Activity [23]: 10.43% | Activity [24]: Active | Activity [25]: Active | Activity [26]: 5.92% | Activity [27]: Active | Activity [28]: 0.02%
